The source made the active and inactive calls.
Assays:
[1] = target: T1, DNA repair protein RAD52 homolog (Homo sapiens, UniProt P43351); assay type: functional, biochemical
T1 sequence (P43351 whole entry): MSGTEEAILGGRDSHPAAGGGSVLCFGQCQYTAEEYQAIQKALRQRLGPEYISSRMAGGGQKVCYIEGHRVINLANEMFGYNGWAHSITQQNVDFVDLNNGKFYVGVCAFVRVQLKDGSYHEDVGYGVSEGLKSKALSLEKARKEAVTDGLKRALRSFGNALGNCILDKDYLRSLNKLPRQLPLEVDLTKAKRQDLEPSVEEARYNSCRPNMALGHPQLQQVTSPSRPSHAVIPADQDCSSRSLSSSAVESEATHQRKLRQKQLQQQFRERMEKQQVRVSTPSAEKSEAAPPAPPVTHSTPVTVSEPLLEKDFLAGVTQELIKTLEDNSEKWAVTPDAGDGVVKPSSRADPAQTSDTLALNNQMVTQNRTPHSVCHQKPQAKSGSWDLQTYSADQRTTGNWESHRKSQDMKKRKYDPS

[2] = target: T2, DNA repair and recombination protein RAD54-like (Homo sapiens, UniProt Q92698); assay: inhibitors of human RAD54 branch migration, confirmation, biochemical, fluorescence, cherry-picked samples, dose series (AID 651657); assay type: functional
T2 sequence (Q92698 whole entry): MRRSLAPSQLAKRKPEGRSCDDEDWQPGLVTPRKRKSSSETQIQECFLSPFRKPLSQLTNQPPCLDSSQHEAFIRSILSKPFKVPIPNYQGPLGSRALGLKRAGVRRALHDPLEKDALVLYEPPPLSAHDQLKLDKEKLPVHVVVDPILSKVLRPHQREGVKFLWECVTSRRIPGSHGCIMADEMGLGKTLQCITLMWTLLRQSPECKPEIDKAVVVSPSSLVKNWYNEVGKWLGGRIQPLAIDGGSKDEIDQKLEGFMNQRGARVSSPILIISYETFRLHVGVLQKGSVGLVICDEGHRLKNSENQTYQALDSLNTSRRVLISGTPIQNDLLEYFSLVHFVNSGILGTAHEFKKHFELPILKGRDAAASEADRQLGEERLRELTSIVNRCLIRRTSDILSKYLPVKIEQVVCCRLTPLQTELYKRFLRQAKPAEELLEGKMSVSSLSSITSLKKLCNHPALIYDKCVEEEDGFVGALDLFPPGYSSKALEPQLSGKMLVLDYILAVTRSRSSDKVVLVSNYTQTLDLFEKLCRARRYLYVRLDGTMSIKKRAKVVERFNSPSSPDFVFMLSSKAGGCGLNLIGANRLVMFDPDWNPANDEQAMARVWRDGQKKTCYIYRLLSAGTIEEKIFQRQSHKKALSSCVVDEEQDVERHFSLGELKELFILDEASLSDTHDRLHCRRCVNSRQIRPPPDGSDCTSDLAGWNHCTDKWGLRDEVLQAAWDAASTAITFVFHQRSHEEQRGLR

[3] = test system: HEK293; assay: cells; conditions: Homo sapiens
[4] = test system: HEK293; assay: cells; conditions: Homo sapiens; remark: listed apart in the source
[5] = target: T3, Nuclear receptor subfamily 0 group B member 1 (Homo sapiens, UniProt P51843); assay: Luminescence-based cell-based high throughput dose response assay for inhibitors of the orphan nuclear receptor subfamily 0, group B, member 1 (DAX1; NR0B1). [Related pubchem assays (depositor defined):AID504766, AID504790]; assay type: functional
T3 sequence (P51843 whole entry): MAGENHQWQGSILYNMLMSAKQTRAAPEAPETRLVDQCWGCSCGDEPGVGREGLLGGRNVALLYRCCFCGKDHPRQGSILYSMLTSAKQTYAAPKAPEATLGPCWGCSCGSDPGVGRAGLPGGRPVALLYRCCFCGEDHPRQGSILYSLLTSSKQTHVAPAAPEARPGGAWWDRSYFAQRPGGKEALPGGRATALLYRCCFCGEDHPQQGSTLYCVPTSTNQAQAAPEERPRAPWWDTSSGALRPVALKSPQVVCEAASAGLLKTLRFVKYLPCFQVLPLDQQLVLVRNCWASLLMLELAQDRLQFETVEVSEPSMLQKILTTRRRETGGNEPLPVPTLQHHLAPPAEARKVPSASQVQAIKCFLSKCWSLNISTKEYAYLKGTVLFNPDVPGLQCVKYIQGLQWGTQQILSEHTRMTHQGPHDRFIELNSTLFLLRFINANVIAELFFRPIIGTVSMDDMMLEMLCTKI

[6] = test system: HEK293; assay: cells; assay type: functional, cell-based; conditions: Homo sapiens
[7] = DNA binding of candidate compounds, dose response, artefact control for RAD54 inhibitor project, biochemical, fluorescence polarization, cherry-pick (AID 651673); assay type: functional

In the case of `COc1cc2c3c(cccc3c1)C(=O)N(CCN1CCCC1)C2=O`, the AC50 [1] is reported as 5.72 µM (active), the AC50 [2] is reported as 2.16 µM (active) and the EC50 [3] is reported as > 59.7 µM (inactive). For the same molecule, the EC50 [4] was > 59.7 µM (inactive), the IC50 [5] was > 67.6 µM (inactive) and the IC50 [6] was > 67.6 µM (inactive). The AC50 [7] was 37.1 µM (active).

— ChEMBL document CHEMBL1201862, “PubChem BioAssay data set” (2004)
